According to the NIST ThermoML archive (doi:10.1021/acs.jced.7b00106):

Details: Hot wire method

FC(F)(F)/C=C/Cl [(E)-1-chloro-3,3,3-trifluoroprop-1-ene]
Details	thermal conductivity [W/m/K]
323.1 K, 34268 kPa, Liquid	0.09193
323.1 K, 66598 kPa, Liquid	0.1029
323.11 K, 123 kPa, Gas	0.01239
323.13 K, 141 kPa, Gas	0.01226
323.13 K, 436 kPa, Liquid	0.07562
323.13 K, 34301 kPa, Liquid	0.09204
323.15 K, 9819 kPa, Liquid	0.08053
323.15 K, 56133 kPa, Liquid	0.09946
323.17 K, 162 kPa, Gas	0.01242
323.18 K, 25073 kPa, Liquid	0.08808
323.2 K, 191 kPa, Gas	0.01256
323.22 K, 5184 kPa, Liquid	0.07808
323.24 K, 99 kPa, Gas	0.01215
323.24 K, 43827 kPa, Liquid	0.09508
323.25 K, 99 kPa, Gas	0.01276
323.25 K, 164 kPa, Gas	0.01258
323.26 K, 123 kPa, Gas	0.01268
323.26 K, 43810 kPa, Liquid	0.0946
323.3 K, 34263 kPa, Liquid	0.09159
323.32 K, 34298 kPa, Liquid	0.09169
323.33 K, 446 kPa, Liquid	0.07514
323.39 K, 25067 kPa, Liquid	0.08782
323.41 K, 123 kPa, Gas	0.01233
323.45 K, 161 kPa, Gas	0.01242
323.47 K, 142 kPa, Gas	0.0127
323.52 K, 66583 kPa, Liquid	0.1032
323.54 K, 259 kPa, Gas	0.01261
323.54 K, 66602 kPa, Liquid	0.103
323.57 K, 16961 kPa, Liquid	0.08443
323.6 K, 56150 kPa, Liquid	0.09972
323.64 K, 165 kPa, Gas	0.01259
323.64 K, 189 kPa, Gas	0.01262
323.65 K, 123 kPa, Gas	0.01276
323.66 K, 9815 kPa, Liquid	0.08057
323.69 K, 99 kPa, Gas	0.01287
323.72 K, 123 kPa, Gas	0.01229
323.73 K, 66589 kPa, Liquid	0.103
323.75 K, 66615 kPa, Liquid	0.1027
323.76 K, 5178 kPa, Liquid	0.07818
323.77 K, 160 kPa, Gas	0.01238
323.77 K, 16953 kPa, Liquid	0.08413
323.81 K, 56140 kPa, Liquid	0.09958
323.87 K, 438 kPa, Liquid	0.07537
323.88 K, 9798 kPa, Liquid	0.08054
323.92 K, 142 kPa, Gas	0.01276
323.98 K, 5181 kPa, Liquid	0.07788
323.99 K, 260 kPa, Gas	0.01261
324.07 K, 165 kPa, Gas	0.01273
324.09 K, 123 kPa, Gas	0.0128
324.11 K, 428 kPa, Liquid	0.07518
324.12 K, 188 kPa, Gas	0.01262
324.17 K, 99 kPa, Gas	0.01287
324.41 K, 142 kPa, Gas	0.01275
324.45 K, 260 kPa, Gas	0.01268
324.52 K, 165 kPa, Gas	0.01271
324.55 K, 123 kPa, Gas	0.01276
324.61 K, 187 kPa, Gas	0.01271
324.68 K, 99 kPa, Gas	0.0129
324.93 K, 141 kPa, Gas	0.01279
324.96 K, 260 kPa, Gas	0.01269
324.99 K, 163 kPa, Gas	0.01274
325.04 K, 123 kPa, Gas	0.01286
325.13 K, 186 kPa, Gas	0.01278
325.22 K, 99 kPa, Gas	0.01286
325.47 K, 141 kPa, Gas	0.01283
325.5 K, 161 kPa, Gas	0.01276
325.56 K, 123 kPa, Gas	0.01283
325.79 K, 99 kPa, Gas	0.01295
326.04 K, 160 kPa, Gas	0.01284
326.1 K, 123 kPa, Gas	0.01295
331.18 K, 333 kPa, Gas	0.01373
331.42 K, 333 kPa, Gas	0.01368
331.5 K, 333 kPa, Gas	0.01298
331.53 K, 115 kPa, Gas	0.01325
331.54 K, 333 kPa, Gas	0.01297
331.58 K, 329 kPa, Gas	0.01333
331.68 K, 333 kPa, Gas	0.01367
331.75 K, 257 kPa, Gas	0.01341
331.8 K, 182 kPa, Gas	0.01323
331.82 K, 332 kPa, Gas	0.01319
331.83 K, 113 kPa, Gas	0.01306
331.85 K, 115 kPa, Gas	0.01325
331.86 K, 333 kPa, Gas	0.01297
331.89 K, 328 kPa, Gas	0.01301
331.9 K, 328 kPa, Gas	0.01382
331.94 K, 333 kPa, Gas	0.01367
331.97 K, 263 kPa, Gas	0.01309
332 K, 256 kPa, Gas	0.01333
332.04 K, 97 kPa, Gas	0.01346
332.06 K, 181 kPa, Gas	0.01314
332.08 K, 113 kPa, Gas	0.01302
332.08 K, 186 kPa, Gas	0.01344
332.12 K, 331 kPa, Gas	0.01303
332.14 K, 328 kPa, Gas	0.01379
332.18 K, 114 kPa, Gas	0.01353
332.2 K, 328 kPa, Gas	0.01299
332.25 K, 255 kPa, Gas	0.01328
332.28 K, 333 kPa, Gas	0.013
332.3 K, 262 kPa, Gas	0.01306
332.33 K, 180 kPa, Gas	0.01309
332.36 K, 113 kPa, Gas	0.01297
332.37 K, 97 kPa, Gas	0.01361
332.4 K, 328 kPa, Gas	0.01373
332.42 K, 185 kPa, Gas	0.01339
332.52 K, 253 kPa, Gas	0.01329
332.54 K, 113 kPa, Gas	0.01346
332.56 K, 97 kPa, Gas	0.01298
332.56 K, 328 kPa, Gas	0.01325
332.63 K, 178 kPa, Gas	0.01301
332.63 K, 333 kPa, Gas	0.01323
332.64 K, 112 kPa, Gas	0.01294
332.66 K, 260 kPa, Gas	0.01314
332.67 K, 328 kPa, Gas	0.01373
332.71 K, 98 kPa, Gas	0.01354
332.81 K, 183 kPa, Gas	0.0135
332.81 K, 252 kPa, Gas	0.01326
332.84 K, 97 kPa, Gas	0.01292
332.93 K, 177 kPa, Gas	0.01297
332.95 K, 113 kPa, Gas	0.01357
332.95 K, 328 kPa, Gas	0.0132
332.96 K, 113 kPa, Gas	0.01287
333.06 K, 258 kPa, Gas	0.01325
333.08 K, 97 kPa, Gas	0.01356
333.08 K, 333 kPa, Gas	0.01308
333.14 K, 97 kPa, Gas	0.01284
333.22 K, 183 kPa, Gas	0.01328
333.25 K, 176 kPa, Gas	0.01293
333.35 K, 328 kPa, Gas	0.0133
333.38 K, 113 kPa, Gas	0.01357
333.44 K, 97 kPa, Gas	0.01284
333.49 K, 257 kPa, Gas	0.01337
333.5 K, 97 kPa, Gas	0.01356
333.54 K, 333 kPa, Gas	0.01313
333.58 K, 176 kPa, Gas	0.01292
333.66 K, 182 kPa, Gas	0.01345
333.78 K, 328 kPa, Gas	0.01326
333.82 K, 113 kPa, Gas	0.0136
333.93 K, 255 kPa, Gas	0.01332
333.94 K, 97 kPa, Gas	0.01368
334.01 K, 333 kPa, Gas	0.01329
334.14 K, 180 kPa, Gas	0.01351
334.25 K, 328 kPa, Gas	0.01327
334.31 K, 112 kPa, Gas	0.01357
334.41 K, 97 kPa, Gas	0.01363
334.42 K, 254 kPa, Gas	0.0134
